Values of other authors as cited in patent US20050255458A1, “Drug discovery assays based on the biology of chronic disease” (priority 2002, published 2005).
Counter-ions that a name gives are not always drawn. Like-named read-outs stand apart in the source and are kept apart here.

Legend:
[1] = cited from earlier work
GABP = conditions: cited from earlier work; for GABP DNA binding activity, treated nuclear extracts: 3T3 nuclear extracts, DTT on extracts of DEM-treated cells, GSSG 5 mM; for GABP DNA binding activity (EMSA): 3T3 cells treated 2 h, single and double N-box probes
NOD mice = conditions: mouse, in vivo; cited from earlier work
ERK1 and ERK2 = conditions: cited from earlier work; for MAPK activation: Wen 1996, Rao 1994
[2] = test system: hair follicles (onset of anagen); conditions: cited from earlier work; for delay in hair regrowth: topical 10 nmol twice weekly, female CD-1 mice
AT1-receptor = target: T1, AT1-receptor (Oryctolagus cuniculus, UniProt P34976); conditions: cited from earlier work
T1 construct: from tissue; host or cells: whole animal: Watanabe and New Zealand White rabbits
T1 sequence (P34976 1-359): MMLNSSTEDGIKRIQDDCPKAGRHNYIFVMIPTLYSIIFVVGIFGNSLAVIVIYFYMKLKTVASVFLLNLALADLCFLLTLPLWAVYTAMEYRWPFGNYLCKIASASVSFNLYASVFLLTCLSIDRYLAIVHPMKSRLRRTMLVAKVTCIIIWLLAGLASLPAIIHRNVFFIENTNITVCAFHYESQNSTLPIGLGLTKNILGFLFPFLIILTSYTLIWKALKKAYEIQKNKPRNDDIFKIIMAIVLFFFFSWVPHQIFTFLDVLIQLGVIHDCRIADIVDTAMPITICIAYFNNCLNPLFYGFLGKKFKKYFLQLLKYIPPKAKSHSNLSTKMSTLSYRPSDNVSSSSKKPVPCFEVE

double N-box-TATA-Luc = conditions: cited from earlier work; for decrease in luciferase expression: double N-box-TATA-Luc
apoE(−/−) mice = conditions: 48 hours post injection; cited from earlier work
TF [3] = conditions: cited from earlier work
ERK [4] = conditions: cited from earlier work
AR gene = conditions: LNCaP; cited from earlier work
papilla cells = conditions: cited from earlier work
anagen hair follicles = conditions: Kondo 1990; cited from earlier work
Elk-1 = conditions: Peterziel 1999; cited from earlier work
TF [5] = conditions: dose-dependent; cited from earlier work
[6] = test system: ocular melanoma cell lines; conditions: cited from earlier work
ERK [7] = conditions: Jurkat cells; cited from earlier work
TF antigen = conditions: starting on day 3, significant on day 28; cited from earlier work
metallothionein (MT) = conditions: OC15 EC, OC15 END cells; cited from earlier work
apo(a) transgenic mice = conditions: 12 weeks; cited from earlier work
fibronectin = conditions: cited from earlier work
20-3 cells = conditions: cited from earlier work
ERK1/2 = conditions: cited studies, various cells; cited from earlier work
AChRδ and AChRε genes = conditions: cited from earlier work
TF [8] = conditions: cited from earlier work; remark: listed apart in the source

Question: With `CN(N=O)C(=O)N[C@H]1C(O)O[C@H](CO)[C@@H](O)[C@@H]1O` (mixture of isomers) [STZ, streptozotocin] as the molecule, how does the “increase in ratio of liver weight to body weight” value ([1]; 8 days after injection) read?
Answer: The value was 12%.

Question: What about the hepatocyte mitosis ([1]; 8 days) of the same molecule?
Answer: The hepatocyte mitosis was 300 % of normal.

Question: What about the “increase in ratio of liver weight to body weight” value ([1]; 30 days) of the same molecule?
Answer: Its value is 44%.

Question: And the hepatocyte mitosis ([1]; 90 days)?
Answer: The hepatocyte mitosis was 25 % of normal.

Question: Which “GABP DNA binding activity, treated nuclear extracts” value (GABP) does the source give for `O[C@H](CS)[C@H](O)CS` (racemic) [DTT, dithiothreitol] here?
Answer: The value was “restored GABP binding activity”.

Question: With `O=C(O)CCCC[C@@H]1CCSS1` (racemic) [lipoic acid] as the molecule, how does the insulitis and diabetes (NOD mice) read?
Answer: Its insulitis and diabetes is “decreased insulitis and delayed diabetes”.

Question: Which MAPK activation (ERK1 and ERK2) does the source give for `CCCCC/C=C\C[C@H](O)/C=C/C=C\C/C=C\CCCC(=O)O` [12-HETE] here?
Answer: Its MAPK activation is “activation of MAPK”.

Question: For `CCCCC[C@H](O)/C=C/C=C\C/C=C\C/C=C\CCCC(=O)O` [15-HETE], which MAPK activation (ERK1 and ERK2) is on record?
Answer: The MAPK activation was “activation of MAPK”.

Question: With `C[C@]12CC[C@@H]3c4ccc(O)cc4CC[C@H]3[C@@H]1CC[C@@H]2O` [17β-estradiol] as the molecule, how does the “delay in hair regrowth” value [2] read?
Answer: The value was “indefinite delay”.

Question: What about the hair growth ([2]; topical application (Chanda 2000)) of the same molecule?
Answer: Its hair growth is “decreased hair growth”.

Question: Which “ERK1 and ERK2 activation” value (ERK1 and ERK2; 0.25 μM, 10 min) does the source give for `O=C(O)CCC/C=C\C/C=C\C/C=C\C/C=C\CCCCCO` [20-HETE, 20-hydroxyeicosatetraenoic acid] here?
Answer: Its value is “activated ERK1 and ERK2”.

Question: What does the source list for `CCCCc1cc(C(=O)OC)cc(=O)n1Cc1ccc(-c2ccccc2-c2nnn[nH]2)cc1F` [Bay 10-6734]?
Answer: fat-stained area in the aorta (AT1-receptor; 25 mg/kg/day, high-cholesterol diet): 5.3±1.4%; % of macrophage stained area/total plaque cross sectional area (AT1-receptor; 25 mg/kg/day): 1±0.2%; cholesterol levels (AT1-receptor; hyperlipidemic or control animals): did not change the cholesterol levels

Question: For `CCOC(=O)/C=C\C(=O)OCC` [DEM, diethyl maleate], which “GABP DNA binding activity (EMSA)” value (GABP) is on record?
Answer: The value was “decreased formation”.

Question: And the “luciferase expression from C/EBP-TA-Luc” value (double N-box-TATA-Luc; 6 or 8 h treatment)?
Answer: The value was “no effect”.

Question: What about the “decrease in luciferase expression” value (double N-box-TATA-Luc; 6 h) of the same molecule?
Answer: The value was 28%.

Question: And the “decrease in luciferase expression” value (double N-box-TATA-Luc; 8 h)?
Answer: The value was 62%.

Question: For `CCCCCCCCCCCCCCCC(=O)OC[C@H](COP(=O)([O-])OCC[N+](C)(C)C)OC(=O)CCCCCCCCCCCCCCC` [DPPC, dipalmitoylphosphatidylcholine], which “lipid content of aortic sinus” value (apoE(−/−) mice) is on record?
Answer: The value was 18.1±4.7 % of plaque area.

Question: And the “macrophage content of aortic sinus” value (apoE(−/−) mice)?
Answer: Its value is 9.3±5.8 % of plaque area.

Question: Which results are given for `CC(=O)N[C@@H](CS)C(=O)O` [NAC, N-Acetylcysteine]?
Answer: TF activity (TF [3]; cells incubated with AGE-alb, 30 mmol/L): concentration dependent inhibition of TF activity; AGE-alb induced TF mRNA (TF [3]): almost completely suppressed; GABP DNA binding activity (EMSA) (GABP): prevented

Question: With `C[C@]12CC[C@H]3[C@@H](CCC4=CC(=O)CC[C@@]43C)[C@@H]1CC[C@@H]2O` [Testosterone] as the molecule, how does the “Effect on [ERK^phos]” value (ERK [4]; SW-13 human adrenal carcinoma) read?
Answer: The value was “↑[ERK^phos]”.

Question: And the “Effect on [mRNAAR]” value (AR gene)?
Answer: Its value is “↓[mRNAAR]”.

Question: What about the papilla cell proliferation (papilla cells; 345 nM, 14 days) of the same molecule?
Answer: The papilla cell proliferation was “significantly decreased papilla cell proliferation”.

Question: What about the “dermal papilla cell proliferation” value (papilla cells; 10^−10 to 10^−7 M, alone or co-cultured (Obana 1997)) of the same molecule?
Answer: Its value is “no effect”.

Question: What about the “concentrations with no significant effect on papilla cell proliferation” value (papilla cells; Kiesewetter 1993) of the same molecule?
Answer: Its value is “lower than 173 nM”.

Question: And the “delay in hair regrowth” value [2]?
Answer: Its value is “small delay”.

Question: And the “growth of isolated hair follicles” value (anagen hair follicles)?
Answer: Its value is “growth inhibition”.

Question: For `CCNc1cccnc1N1CCN(CC2(C)CCc3c(C)c(O)c(C)c(C)c3O2)CC1.Cl` (stereo not shown) [U78518F], which insulitis and diabetes (NOD mice) is on record?
Answer: The insulitis and diabetes was “decreased insulitis and delayed diabetes”.

Question: With `CC(O)(CS(=O)(=O)c1ccc(F)cc1)C(=O)Nc1ccc(C#N)c(C(F)(F)F)c1` (stereo not shown) [casodex] as the molecule, how does the Elk-1 transcription activity (Elk-1) read?
Answer: Its Elk-1 transcription activity is “increase in Elk-1 transcription activity”.

Question: Which Elk-1 transcription activity (Elk-1) does the source give for `CC(C)(O)C(=O)Nc1ccc([N+](=O)[O-])c(C(F)(F)F)c1` [hydroxyflutamide] here?
Answer: The Elk-1 transcription activity was “increase in Elk-1 transcription activity”.

Question: For `CN(CC(=O)NO)C(=O)[C@@H]1CCCC[C@@H]1C(=O)O` [idrapril], which TF activity (TF [5]) is on record?
Answer: The TF activity was “decreased TF activity”.

Question: With `C[C@H](CCC(=O)O)C[C@H](C)C[C@H](C)C(=O)/C=C(\O)[C@H](C)C[C@H](C)C/C=C/[C@@H](C)[C@@H](O)[C@@H](C)[C@@H](O)C[C@@H]1CC[C@@](C)([C@H]2CC[C@@](C)([C@@H](C)O)O2)O1` [ionomycin] as the molecule, how does the “cell attachment to plates coated with fibronectin and other matrix proteins” value [6] read?
Answer: The value was “Significant inhibition”.

Question: And the ERK phosphorylation (ERK [7])?
Answer: Its ERK phosphorylation is “increased ERK phosphorylation”.

Question: For `CCCCc1nc(Cl)c(CO)n1Cc1ccc(-c2ccccc2-c2nn[nH]n2)cc1` [losartan], which “plasma TF antigen levels” value (TF antigen) is on record?
Answer: Its value is “negative effect on plasma TF antigen levels”.

Question: For `NC(=O)c1cccnc1` [nicotinamide], which insulitis and diabetes (NOD mice) is on record?
Answer: The insulitis and diabetes was “decreased insulitis and delayed diabetes”.

Question: For `CC(=O)[O-].[Na+]` [sodium acetate], which “MT mRNA levels” value (metallothionein (MT)) is on record?
Answer: Its value is “no effect”.

Question: With `CCC(=O)[O-].[Na+]` [sodium propionate] as the molecule, how does the “MT mRNA levels” value (metallothionein (MT)) read?
Answer: Its value is “no effect”.

Question: Which results are given for `CC/C(=C(\c1ccccc1)c1ccc(OCCN(C)C)cc1)c1ccccc1` [tamoxifen]?
Answer: decrease of area of focal apo(a) accumulation (apo(a) transgenic mice): 97%; decrease of average level of apo(a) in the vessel wall (apo(a) transgenic mice): 69%; decrease of lesion area (apo(a) transgenic mice): 92%; decrease of number of lipid lesions (apo(a) transgenic mice): 80%; cell attachment to plates coated with fibronectin and other matrix proteins [6]: significant inhibition of cell attachment

Question: What does the source list for `NCCCCCC(=O)O` [ε-ACA]?
Answer: Lp(a) binding to fibronectin (fibronectin): not effective against Lp(a) binding to fibronectin; binding of plasminogen to fibronectin (fibronectin): inhibited binding of plasminogen to fibronectin

Question: Which “Effect on [ERK^phos]” value (ERK [4]; DU145) does the source give for EGF: EGF, an ERK agent here?
Answer: The value was “↑[ERK^Phos]”.

Question: What about the “Effect on [ERK^phos]” value (ERK [4]; LNCaP) of the same molecule?
Answer: Its value is “↑[ERK^phos]”.

Question: What about the “Effect on [ERK^phos]” value (ERK [4]; PC-3) of the same molecule?
Answer: The value was “↑[ERK^phos]”.

Question: What about the Elk-1 transcription activity (Elk-1) of the same molecule?
Answer: Its Elk-1 transcription activity is “Elk-1 activation”.

Question: And the “Effect on [mRNAAR]” value (AR gene)?
Answer: The value was “↓[mRNAAR]”.

Question: What does the source list for TGFβ1: transforming growth factor-β1?
Answer: labeling index after treatment (20-3 cells; 5 ng/ml, 72 h, permissive temperature (from 95%)): 80%; labeling index after treatment (20-3 cells; 72 h non-permissive then 24 h permissive (from 60%)): below 10%; labeling index after treatment (20-3 cells; non-permissive temperature (from 20%)): less than 5%

Question: Which results are given for heregulin?
Answer: phosphorylation of ERK1/2 (ERK1/2): phosphorylation of ERK1/2; increase in GABPα protein level (AChRδ and AChRε genes; Western blot, treated vs untreated cells): 2 fold; phosphorylation of GABPα and GABPβ (AChRδ and AChRε genes; chick primary myotubes): increased phosphorylation; transcription of AChRδ and AChRε genes (AChRδ and AChRε genes): increased transcription; transcription of utrophin (AChRδ and AChRε genes): stimulated transcription

Question: With oxidized glutathione [GSSG] as the molecule, how does the “GABP DNA binding activity, treated nuclear extracts” value (GABP) read?
Answer: The value was “nearly abolished GABP DNA binding”.

Question: Which results are given for vitamin E?
Answer: effect on LPS induced TF expression (TF [8]): inhibited the LPS induced expression; effect on Cu^+2 induced procoagulant activity (TF [8]; probucol 20, vitamin E 50, BHT 50, U74389G 20 μmol/L): inhibited the Cu^+2 induced procoagulant activity; insulitis and diabetes (NOD mice): decreased insulitis and delayed diabetes
